Here are results for 1 compound from patent publication US8337835B2, “Use of an endogenous ligand for peroxisome proliferator activated receptor alpha to treat liver disorders” (priority 2009, dated 2012).

The test system of assay [1] is hepatic steatosis. In words: Portal vein infusion, liver fat / triglyceride content in zero fat diet and fasting fatty liver model. The format is in vivo, mouse.
The test system of assay [2] is PPARα-dependent genes ACO and CPT-1. In words: Portal vein infusion, hepatic ACO and CPT-1 mRNA by RT-PCR. The format is in vivo, mouse. To be noted: 10 mg/kg intraportal three times a day. The method, then:
Total RNA was extracted from Hepa 1-6 cells and liver using Trizol (Invitrogen) and treated with DNase I (RNase-free, Roche Molecular Biochemicals). Reverse transcription to cDNA and real-time quantitative PCR were performed using previously published procedures and primer-probe sequences for ACO and CPT-1 (Chakravarthy et al., 2005). RT-PCR for ChPT1 and CEPT1 was performed using the following primer-probe sets: ChPT1 (Forward, 5′-[…]-3′ (SEQ ID NO: 3); Reverse, 5′-[…]-3′ (SEQ ID NO: 4); Probe, 5′-[…]-3′ (SEQ ID NO: 5)); CEPT1 (Forward, 5′-TGCTGGACGGTCCCTTCTC-3′ (SEQ ID NO: 6); Reverse, 5′-[…]-3′ (SEQ ID NO: 7); Probe, 5′-[…]-3′ (SEQ ID NO: 8)). RNA not subjected to reverse transcription was included in each assay as a negative control. […] Relative mRNA levels were calculated using both the comparative CT and standard curve methods normalized to ribosomal protein L32, an invariant internal control. […]
The objectives were achieved by portal vein infusion of 1-palmitoyl-2-oleoyl-sn-glycerol-3-phosphocholine (16:0/18:1-GPC) to rescue PPARα^−/− mice from fatty liver disease or hepatic steatosis, liver tissue extraction, RT-PCR gene expression analysis of the extracted liver tissue and lipid and triglyceride assessment of the extracted liver tissue. […] Fat staining of liver is shown in FIG. 7C and liver triglyceride quantified in FIG. 7D. […]

Turning to `CCCCCCCC/C=C\CCCCCCCC(=O)O[C@H](COC(=O)CCCCCCCCCCCCCCC)COP(=O)([O-])OCC[N+](C)(C)C` [16:0/18:1-GPC, 1-palmitoyl-2-oleoyl-sn-glycerol-3-phosphocholine], in assay [1] (PPARα-deficient mice, 10 mg/kg intraportal three times a day, 5 days ZFD, 24 h fast), the liver lipid content result is recorded as “unaffected”. Also, in assay [1] (control (C57/BL6) mice, 10 mg/kg intraportal three times a day, 5 days ZFD, 24 h fast, vs vehicle), the liver fat content entry was “decreased”. Further, the “effect of intraperitoneal administration” value in assay [1] (intraperitoneal route, preliminary results (data not shown)) was “no effect”. The “hepatic ACO and CPT-1 expression” value in assay [2] (PPARα-deficient mice) was “not in PPARα-deficient mice”; in assay [2] (control (C57/BL6) mice) it was “increased”.
